# According to the supplement of paper PMC10307832:
# Key:
# Assay in all cases: relative viability (nuclei count vs DMSO), 5 days (fraction); higher = more cells survive
# R406 + Alpelisib = compound: COc1cc(Nc2ncc(F)c(Nc3ccc4c(n3)NC(=O)C(C)(C)O4)n2)cc(OC)c1OC [R406] + Cc1nc(NC(=O)N2CCC[C@H]2C(N)=O)sc1-c1ccnc(C(C)(C)C(F)(F)F)c1 [Alpelisib] (partner 2 µM)
# Outline: (§1)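 The day after seeding in 1536-well plates, lung cancer cell lines were treated by pin tool with a single drug, or with a fixed anchor-drug dose together with five library-drug doses (not always all listed) in √10 steps. After 5 days, a combined fix-and-stain solution (final 0.05% Triton X-100, 1% formaldehyde, 1 ug/ml Hoechst) was added. Nuclei counted on 4× images gave relative viability as treated counts over vehicle counts, reported as the median of duplicate plates.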
# Daporinad + Palbociclib = compound: O=C(/C=C/c1cccnc1)NCCCCC1CCN(C(=O)c2ccccc2)CC1 [Daporinad] + CC(=O)c1c(C)c2cnc(Nc3ccc(N4CCNCC4)cn3)nc2n(C2CCCC2)c1=O [Palbociclib] (partner 0.5 µM)
# Outline: as §1
# Daporinad + Navitoclax = compound: O=C(/C=C/c1cccnc1)NCCCCC1CCN(C(=O)c2ccccc2)CC1 [Daporinad] + CC1(C)CCC(c2ccc(Cl)cc2)=C(CN2CCN(c3ccc(C(=O)NS(=O)(=O)c4ccc(N[C@H](CCN5CCOCC5)CSc5ccccc5)c(S(=O)(=O)C(F)(F)F)c4)cc3)CC2)C1 [Navitoclax] (partner 0.5 µM)
# Outline: as §1
# Daporinad + Linsitinib = compound: O=C(/C=C/c1cccnc1)NCCCCC1CCN(C(=O)c2ccccc2)CC1 [Daporinad] + C[C@]1(O)C[C@@H](c2nc(-c3ccc4ccc(-c5ccccc5)nc4c3)c3c(N)nccn32)C1 [Linsitinib] (partner 1 µM)
# Outline: as §1
cell line,measurement,setting,value
UMC-11,relative viability,R406 + Alpelisib; first compound 0.08 µM,0.969
same,relative viability,R406 + Alpelisib; first compound 0.253 µM,1.06
same,relative viability,R406 + Alpelisib; first compound 0.8 µM,1.15
same,relative viability,R406 + Alpelisib; first compound 2.53 µM,0.89
same,relative viability,R406 + Alpelisib; first compound 8 µM,0.386
same,relative viability,Daporinad + Palbociclib; first compound 0.0005 µM,0.385
same,relative viability,Daporinad + Palbociclib; first compound 0.001581 µM,0.338
same,relative viability,Daporinad + Palbociclib; first compound 0.005 µM,0.342
same,relative viability,Daporinad + Palbociclib; first compound 0.01581 µM,0.395
same,relative viability,Daporinad + Navitoclax; first compound 0.0005 µM,0.335
same,relative viability,Daporinad + Navitoclax; first compound 0.001581 µM,0.33
same,relative viability,Daporinad + Navitoclax; first compound 0.005 µM,0.377
same,relative viability,Daporinad + Navitoclax; first compound 0.01581 µM,0.288
same,relative viability,Daporinad + Linsitinib; first compound 0.0005 µM,1.02
same,relative viability,Daporinad + Linsitinib; first compound 0.001581 µM,0.975
same,relative viability,Daporinad + Linsitinib; first compound 0.005 µM,1.1
same,relative viability,Daporinad + Linsitinib; first compound 0.01581 µM,1.03
